We go through nine molecules from patent US20090111798A1, “5,6-DIHYDRO-1H-PYRIDIN-2-ONE COMPOUNDS” (priority 2006, published 2009).

Counter-ions that a name gives are not always drawn.

Sequence of NS5B polymerase (P26663 2420-3010): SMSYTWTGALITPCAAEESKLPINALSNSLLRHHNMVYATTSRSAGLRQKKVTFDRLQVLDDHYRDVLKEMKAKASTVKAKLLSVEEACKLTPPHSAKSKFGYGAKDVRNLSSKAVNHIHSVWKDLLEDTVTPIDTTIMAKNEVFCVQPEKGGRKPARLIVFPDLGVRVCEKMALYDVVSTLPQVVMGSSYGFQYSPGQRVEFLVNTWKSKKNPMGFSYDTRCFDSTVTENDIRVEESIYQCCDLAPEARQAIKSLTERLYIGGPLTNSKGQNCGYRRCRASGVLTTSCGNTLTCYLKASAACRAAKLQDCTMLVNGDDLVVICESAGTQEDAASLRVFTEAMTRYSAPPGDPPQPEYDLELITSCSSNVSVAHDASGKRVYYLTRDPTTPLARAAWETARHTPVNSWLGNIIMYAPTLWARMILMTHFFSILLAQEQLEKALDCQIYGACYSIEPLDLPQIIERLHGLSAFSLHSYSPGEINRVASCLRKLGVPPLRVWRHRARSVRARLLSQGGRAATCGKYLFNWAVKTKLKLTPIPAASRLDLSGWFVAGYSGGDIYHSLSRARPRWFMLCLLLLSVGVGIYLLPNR

The experiment addresses NS5B polymerase (Hepatitis C virus genotype 1b, UniProt P26663). The experiment is described as follows: biochemical. As to conditions: NS5B polymerase inhibition; 20 nM enzyme, 75 min at 28° C. The procedure:
Compounds were tested for HCV polymerase inhibition. Assays were performed in a 96-well streptavidin-coated FlashPlate using 20 nM enzyme, 0.5μ Ci of [α-^33P]GTP, 0.6 μM GTP, and 250 nM 5′biotinylated oligo (rG13)/poly rC in 20 mM Tris-HCl, pH 7.5, 5 mM MgCl2, 5 mM dithiothreitol, 0.1 g/L bovine serum albumin, and 100 U/mL RNAse inhibitor. The reaction was stopped by aspiration after 75 min at 28° C. and the plate was washed several times. After washing and drying the plate, incorporated radioactivity was counted using a Microbeta scintillation counter. IC50 values were calculated relative to the uninhibited control and inhibition data were fitted to a 4-parameter IC50 equation.
`CS(=O)(=O)Nc1ccc2c(c1)S(=O)(=O)N=C(C1=C(O)[C@@H]3CCC[C@@H]3N(NC3CCC3)C1=O)N2` (relative stereo) [Example 41, cis-N-[3-(1-Cyclobutylamino-4-hydroxy-2-oxo-2,4-a,5,6,7,7a-hexahydro-1H-[1]pyrindin-3-yl)-1,1-dioxo-1,4-dihydro-1λ^6-benzo[1,2,4]thiadiazin-7-yl]-methanesulfonamide trifluoroacetic acid salt] gave an IC50 of 20 to 100 nM. The value for `CS(=O)(=O)Nc1ccc2c(c1)S(=O)(=O)N=C(C1=C(O)[C@@H]3CCC[C@@H]3N(C3CCCCC3)C1=O)N2` (relative stereo) [Example 43, cis-N-[3-(1-Cyclohexyl-4-hydroxy-2-oxo-2,4-a,5,6,7,7a-hexahydro-1H-[1]pyrindin-3-yl)-1,1-dioxo-1,4-dihydro-1λ^6-benzo[1,2,4]thiadiazin-7-yl]-methanesulfonamide] was 100 to 1000 nM.

The molecule `CS(=O)(=O)Nc1ccc2c(c1)S(=O)(=O)N=C(C1=C(O)[C@@H]3CCC[C@@H]3N(CC3CCC3)C1=O)N2` (relative stereo) [Example 47, cis-N-[3-(1-Cyclobutylmethyl-4-hydroxy-2-oxo-2,4-a,5,6,7,7a-hexahydro-1H-[1]pyrindin-3-yl)-1,1-dioxo-1,4-dihydro-1λ^6-benzo[1,2,4]thiadiazin-7-yl]-methanesulfonamide] yielded an IC50 of 20 to 100 nM.

Regarding `CS(=O)(=O)Nc1ccc2c(c1)S(=O)(=O)N=C(C1=C(O)[C@@H]3CCC[C@@H]3N(c3ccccc3)C1=O)N2` (relative stereo) [Example 48, cis-N-[3-(4-Hydroxy-2-oxo-1-phenyl-2,4-a,5,6,7,7a-hexahydro-1H-[1]pyrindin-3-yl)-1,1-dioxo-1,4-dihydro-1λ^6-benzo[1,2,4]thiadiazin-7-yl]-methanesulfonamide], the concentration for half-maximal inhibition (IC50) is 1000 to 100000 nM. Next, `CN1C(=O)C(C2=NS(=O)(=O)c3cc(NS(C)(=O)=O)ccc3N2)=C(O)[C@@H]2CCC[C@@H]21` (relative stereo) [Example 53, cis-N-[3-(4-Hydroxy-1-methyl-2-oxo-2,4a,5,6,7,7a-hexahydro-1H-[1]pyrindin-3-yl)-1,1-dioxo-1,4-dihydro-1λ^6-benzo[1,2,4]thiadiazin-7-yl]-methanesulfonamide]: 1000 to 100000 nM; `CCN1C(=O)C(C2=NS(=O)(=O)c3cc(NS(C)(=O)=O)ccc3N2)=C(O)[C@@H]2CCC[C@@H]21` (relative stereo) [Example 54, cis-N-[3-(1-Ethyl-4-hydroxy-2-oxo-2,4a,5,6,7,7a-hexahydro-1H-[1]pyrindin-3-yl)-1,1-dioxo-1,4-dihydro-1λ^6-benzo[1,2,4]thiadiazin-7-yl]-methanesulfonamide]: 100 to 1000 nM; `CC(C)N1C(=O)C(C2=NS(=O)(=O)c3cc(NS(C)(=O)=O)ccc3N2)=C(O)[C@@H]2CCC[C@@H]21` (relative stereo) [Example 55, cis-N-[3-(4-Hydroxy-1-isopropyl-2-oxo-2,4a,5,6,7,7a-hexahydro-1H-[1]pyrindin-3-yl)-1,1-dioxo-1,4-dihydro-1λ^6-benzo[1,2,4]thiadiazin-7-yl]-methanesulfonamide]: 100 to 1000 nM. Next, `CS(=O)(=O)Nc1ccc2c(c1)S(=O)(=O)N=C(C1=C(O)[C@@H]3CCC[C@@H]3N(Cc3ccc(Cl)cc3)C1=O)N2` (relative stereo) [Example 56, cis-N-{3-[1-(4-Chloro-benzyl)-4-hydroxy-2-oxo-2,4a,5,6,7,7a-hexahydro-1H-[1]pyrindin-3-yl]-1,1-dioxo-1,4-dihydro-1λ^6-benzo[1,2,4]thiadiazin-7-yl}-methanesulfonamide]: less than 20 nM. Take `CS(=O)(=O)Nc1ccc2c(c1)S(=O)(=O)C=C(C1=C(O)[C@@H]3CCCCC[C@@H]3N(Cc3ccc(F)cc3)C1=O)N2` (relative stereo) [Example 57, cis-N-{3-[1-(4-Fluoro-benzyl)-4-hydroxy-2-oxo-2,4a,5,6,7,8,9,9a-octahydro-1H-cyclohepta[b]pyridin-3-yl]-1,1-dioxo-1,4-dihydro-1λ^6-benzo[1,4]thiazin-7-yl}-methanesulfonamide]: the IC50 is less than 20 nM.

Broadly, the IC50 is the concentration at which inhibition is half-maximal. High values mean lower potency, low ones higher potency.
